From patent US20220233661A1, “METHOD OF DETERMINING ELIGIBILITY OF CANCER PATIENT FOR PEPTIDE VACCINE THERAPY” (priority 2019, published 2022)

Columns and labels:
[1] = system: anti-peptide IgG in plasma; test: Test Example 4: peptide-specific IgG titer pre and post vaccination, bead-based multiplexed Luminex assay; type: in vivo, human; conditions: for Pre-vaccination IgG Negative (number of patients) / Pre-vaccination IgG Positive (number of patients): cut off 10 FIU; for Post vaccination IgG: number of (positive) patients among vaccinated: positive IgG response; for Pre-vaccination IgG Negative patients: number of 2,588 patients below 10 FIU; for Pre-vaccination IgG Positive patients: number of 2,588 patients with ≥10 FIU; for Post vaccination IgG: (positive) patients: number of vaccinated patients with positive IgG response; for Correlation between immune responses and OS: Negative (mOS): patients with negative post-vaccination IgG response to the peptide; for Correlation between immune responses and OS: Positive (mOS): patients with positive post-vaccination IgG response to the peptide
Protocol: As described previously, IgG titer specific to the antigen peptides in plasma was measured by bead-based multiplexed Luminex assay (Luminex, Austin, Tex.) before and after vaccination, i.e., at the end of each cycle or at the end of the clinical trial (Non-Patent Literature 4). In brief, 30 mL of peripheral blood was obtained before and after vaccination. Plasma was incubated with 100 μL of peptide-coupled color-coded beads for 2 hours at 25° C. on a plate shaker. After the incubation, the resultant mixture was washed with a vacuum manifold apparatus and incubated with 100 μL of biotinylated goat anti-human IgG (gamma chain-specific; Vector Laboratories, Burlingame, Calif.) for 1 hour at 25° C. on a plate shaker. The plate was then washed, followed by addition of 100 μL of streptavidin-PE (Life Technologies) to each well, and incubation for 30 minutes at 25° C. on a plate shaker. The resultant beads were washed 4 times, followed by addition of 100 μL of Tween-PBS to each well, and detection of fluorescence intensity units (FIU) on the beads using the Luminex system. The cutoff values of anti-peptide IgG were set to 10 FIU in 100-fold diluted samples.
Pre-vaccination peptide-specific IgG titers to 31 peptides were measured using a Luminex system. As a detectable IgG level, 10 FIU was employed as the cut off level, as reported previously (Noguchi M, et al., Cancer Immunol Immunother. 2013 May; 62(5): 919-29; Sasada T, et al., Current Medicinal Chemistry. 21: 2332-2345, 2014; Kibe S, et al., Cancer Immunology Research 2014; 2(12): 1154-62).
Post-vaccination lgG titers were measured at the ends of the first cycle and the second cycle.

cancer patients = test: Test Example 4: correlation between vaccination with individual peptides (or peptide sets) and OS, Cox proportional hazards regression; type: in vivo, human; conditions: for HR: Cox proportional hazards regression, OS; for Correlation between immune responses and OS: Negative (mOS) / Correlation between immune responses and OS: Positive (mOS): Table 20, <64% neutrophil and ≥26% lymphocyte; for Correlation between immune responses and OS: Negative (mOS): vaccinated patients with negative IgG response; for Correlation between immune responses and OS: Positive (mOS): vaccinated patients with positive IgG response
Protocol: The Student's t-test and the chi-square test were used to compare quantitative and categorical variables, respectively. OS was calculated as the time in months from the date of clinical trial enrollment to death or to the date of last contact. Time-to-event endpoints were analyzed using the Kaplan-Meier method, and between-group comparison for OS was conducted using the log-rank test. Clinical efficacy of the individual peptides for OS was evaluated by univariate and multivariate analyses with the Cox proportional hazards regression model, and HR and 95% CI were calculated. All reported p-values were two-sided, and p-values less than 0.05 were considered significant. JMP version 12 or SAS version 9.4 software (SAS Institute Inc., Cary, N.C.) was used to perform all analyses.
Correlation levels of the 31 peptides for OS were evaluated by the Cox proportional hazards regression model.
Similarly, in the 2,085 advanced cancer patients (stage IV+recurrence) and the 503 non-advanced cancer patients (I-III stages) correlation levels of the 31 peptides for OS were evaluated by the Cox proportional hazards regression model. […]

[2] = Table 20, patients showing both <64% neutrophil and ≥26% lymphocyte
[3] = patients showing detectable levels
[4] = patients showing positive responses
[5] = Table 18, all 2,588 cases, vaccinated vs non-vaccinated
[6] = Table 18, all 2,588 cases, median OS of patients under PPV containing the peptide
[7] = Table 18, all 2,588 cases, median OS of patients under PPV not containing the peptide
[8] = Table 19, 2,085 advanced cancer patients (stage IV+recurrence)
[9] = Table 19, 2,085 advanced cancer patients (stage IV+recurrence), PPV containing the peptide
[10] = Table 19, 2,085 advanced cancer patients (stage IV+recurrence), PPV not containing the peptide
[11] = Table 21, patients showing both <64% neutrophil and ≥26% lymphocyte
[12] = Table 21, patients showing both <64% neutrophil and ≥26% lymphocyte, PPV containing the peptide
[13] = Table 21, patients showing both <64% neutrophil and ≥26% lymphocyte, PPV not containing the peptide
[14] = 2,085 advanced cancer patients (stage IV+recurrence)

Sequence	Post vaccination IgG Median (FIU) [1, 2]	Pre-vaccination IgG Median (FIU) [1, 2] [FIU]	Pre-vaccination IgG Negative (number of patients) [1, 2]	Pre-vaccination IgG Positive (number of patients) [1, 2]	Post vaccination IgG: number of (positive) patients among vaccinated [1, 2]	Pre-vaccination IgG Negative patients [1]	Pre-vaccination IgG Positive patients [1]	Post vaccination IgG: (positive) patients [1]	Pre-vaccination IgG Median (FIU) [1, 3] [FIU]	Post vaccination IgG Median (FIU) [1, 4]	Correlation between immune responses and OS: Negative (mOS) [1] [months]	Correlation between immune responses and OS: Positive (mOS) [1] [months]	HR (cancer patients; [5])	Vaccinate cases (mOS) (cancer patients; [6])	Non-vaccinate cases (mOS) (cancer patients; [7])	HR (cancer patients; [8])	Vaccinate cases (mOS) (cancer patients; [9])	Non-vaccinate cases (mOS) (cancer patients; [10])	Correlation between immune responses and OS: Negative (mOS) (cancer patients) [months]	Correlation between immune responses and OS: Positive (mOS) (cancer patients) [months]	further results
NYSVRYRPGL (listed as Homo sapiens) [MRP3-1293]	6,491 FIU	27	423	643	132(83)	1,030	1,558	324(157)	27	6,003 FIU	8.6	20.6	1.1	324(11.9) M	1,226(12.1) M	1.0	253(10.5) M	993(10.4) M	12.6	24.3	HR (cancer patients; [11]): 1.0; Vaccinate cases (mOS) (cancer patients; [12]): 132(17.5) M; Non-vaccinate cases (mOS) (cancer patients; [13]): 493(18.4) M
HYTNASDGL (listed as Homo sapiens) [Lck-208]	9,551 FIU	31	839	227	69(36)	2,028	560	134(64)	30	4,597 FIU	16.0	30.5	0.9	134(19.7) M	1,416(11.4) M	0.7	103(17.1) M	1143(10.0) M	19.9	34	median OS of non-vaccinated cases (cancer patients; [14]): 10 months; median OS of vaccinated cases (cancer patients; [14]): 17.1 months; HR (cancer patients; [11]): 0.7; Vaccinate cases (mOS) (cancer patients; [12]): 69(26.7) M; Non-vaccinate cases (mOS) (cancer patients; [13]): 556(17.6) M
ILGELREKV (listed as Homo sapiens) [WHSC2-141]	18,171 FIU	38	261	805	134(91)	680	1,908	325(173)	39	13,078 FIU	7.7	19.0	1.0	325(12.1) M	725(11.1) M	1.0	271(11.1) M	591(10.1) M	12	28.2	HR (cancer patients; [11]): 1.0; Vaccinate cases (mOS) (cancer patients; [12]): 134(18.0) M; Non-vaccinate cases (mOS) (cancer patients; [13]): 300(16.6) M
WLEYYNLER (listed as Homo sapiens) [SART3-511]	1,095 FIU	38	264	802	179(82)	621	1,967	439(145)	41	921 FIU	10.8	22.6	1.0	439(11.0) M	775(11.2) M	1.0	346(9.9) M	623(10.0) M	17.1	29.2	HR (cancer patients; [11]): 0.9; Vaccinate cases (mOS) (cancer patients; [12]): 179(19.0) M; Non-vaccinate cases (mOS) (cancer patients; [13]): 328(17.5) M
KLKHYGPGWV (listed as Homo sapiens) [CypB-129]	3,143 FIU	28	290	776	196(110)	700	1,888	483(222)	31	2,483 FIU	9.0	23.8	0.9	483(12.3) M	1458(11.2) M	0.9	393(10.9) M	1183(10.1) M	13.2	29.4	HR (cancer patients; [11]): 0.9; Vaccinate cases (mOS) (cancer patients; [12]): 196(19.3) M; Non-vaccinate cases (mOS) (cancer patients; [13]): 612(16.9) M
ALVEFEDVL (listed as Homo sapiens) [HNRPL-140]	7,150 FIU	37	505	561	103(68)	1,293	1,295	200(111)	39	8,576 FIU	9.8	23.9	0.8	200(12.9) M	850(11.1) M	0.8	162(12.1) M	700(10.0) M	10.4	26.2	median OS of non-vaccinated cases (cancer patients; [14]): 10 months; median OS of vaccinated cases (cancer patients; [14]): 12.1 months; HR (cancer patients; [11]): 0.8; Vaccinate cases (mOS) (cancer patients; [12]): 103(19.0) M; Non-vaccinate cases (mOS) (cancer patients; [13]): 331(15.6) M; median OS of vaccinated cases (cancer patients; all 2,588 cases, PPV containing the peptide): 12.9 months; median OS of non-vaccinated cases (cancer patients; all 2,588 cases, PPV not containing the peptide): 11.1 months
